In patent publication US10376520B2, “Methods for the treatment of cardiovascular disorders” (Galapagos NV, priority 2015, dated 2019):

Experiments:
Type in all cases: in vivo, human
RA patients [1] = assay: Disease Activity Score 28 (DAS28(CRP)), Study 1
Text: As used herein, the term ‘DAS28(CRP)’ refers to a clinical scoring ranging from 2.0 to 10.0 to measure the disease status at a given point in time, and thereby follow the progress and improvement of rheumatoid arthritis in a patient, and includes a 28 tender and swollen joint count, CRP measurement from blood analysis, and a general health assessment on a visual analog scale. A DAS28(CRP) value below 2.6 is indicative of remission, A DAS28(CRP) between 2.6 and 3.2 is indicative of low disease activity, between 3.2 and 5.1 is indicative of moderate disease activity, whereas a DAS28(CRP) above 5.1 is linked to high disease activity. (Wells et al., 2008)
Double-blind, placebo-controlled add on study in subjects with moderately to severely active RA who have an inadequate response to methotrexate (MTX) (oral or parenteral).
Compound 1 (dosed as a [Compound 1:HCl:3H2O]) is dosed for twelve weeks once daily (q.d.) (50 mg, 100 mg or 200 mg) or twice daily (b.i.d.) (25 mg, 50 mg or 100 mg); or placebo.
At Week 12, the subjects on placebo who have not achieved 20% improvement in swollen joint count (SJC66) and tender joint count (TJC68) are re-randomized automatically to receive Compound 1 (dosed as a [Compound 1:HCl:3H2O]) either at 100 mg q.d. or 50 mg b.i.d. doses in a blinded fashion; subjects on 50 mg q.d. who have not achieved 20% improvement in SJC66 and TJC68 will be assigned to 100 mg q.d. and subjects on 25 mg b.i.d. that have not achieved a 20% improvement in SJC66 and TJC68 will be assigned to 50 mg b.i.d. Subjects who switch treatment at week 12 are handled as if they discontinued at week 12 for the purpose of statistical analysis, whereas subjects in the other groups will maintain their randomized treatment until Week 24.
The (DAS28(CRP)) is a system developed and validated by the European League Against Rheumatism (EULAR) to measure the progress and improvement of rheumatoid arthritis and has been extensively validated (Wells et al., 2008). The DAS28(CRP) scoring includes a 28 tender and swollen joint count, CRP measurement from blood analysis, and a general health assessment on a visual analog scale (Fransen et al., 2003).
DAS28(CRP) values range from 2.0 to 10.0, and more particularly reflect the following status: • Remission: DAS28(CRP)≤2.6 • Low Disease activity: 2.6<DAS28(CRP)≤3.2 • Moderate Disease Activity: 3.2<DAS28(CRP)≤5.1 • High Disease Activity: DAS28(CRP)>5.1
In practice, the DAS28(CRP) measurement involves the evaluation 28 different joints including in the measurement (proximal interphalangeal joints (10 joints), metacarpophalangeal joints (10), wrists (2), elbows (2), shoulders (2), and knees (2)). When looking at these joints, both the number of joints with tenderness upon touching and swelling are counted.
Firstly, the patient is asked to make a vertical mark on a 100 mm Visual Analog Scale (VAS) corresponding to their general health or global disease activity. Using an electronic touchscreen, the mark is measured from the left-hand side in mm to obtain the VAS value, which is used in the formula below.
Secondly, a swollen and tender joint examination is then performed on the patient. The swollen and tender joints are recorded. From this examination are obtained the total amount of swollen joints (SJC) and the total amount of tender joints (TJC), which are used in the formula below.
Thirdly, C-reactive protein (CRP) levels (in mg/dL) are measured.
Finally, the values obtained above (VAS, JTC28, SJC28, and CRP) are computed into the following Formula to obtain the DAS28(CRP) score.
The number of subjects (N) provided in each groups corresponds to the number of patients starting the study in each group, and the DAS28 (CRP) data reported below corresponds to the responding patients continuing for the entire 24 weeks on their initial treatment course.

RA patients [2] = assay: Plasma ApoC-III concentration (ELISA), Study 4; settings: for ApoC-III level, 4 weeks CFB: 4 weeks change from baseline
Experimental: (§1) Randomized double-blind, placebo-controlled add on study in subjects with active RA who have an inadequate response to MTX monotherapy, in combination with methotrexate, administered for 4 weeks in the treatment of subjects with active rheumatoid arthritis who have an inadequate response to methotrexate alone.
(§2) Compound 1 (dosed as a [Compound 1:HCl:3H2O]) capsules administered orally in 30 mg, 75 mg, 150 mg, or 300 mg doses per day for 4 weeks.
Plasma ApoC-II and ApoC-III concentrations are determined using commercial available ELISA kits from Abnova (9th Floor, No. 108, Jhouzih St., Neihu District. Taipei City, 114, Taiwan) according to manufacturer's instruction. apoC2: catalogue number KA0464, lot number used: 08871403. apoC3: catalogue number KA0465, lot number used: 02961525.

RA patients [3] = assay: Lipoprotein A (Lp(a)) level (Selectra autoanalyzer), Study 4; settings: for LpA level, 4 weeks CFB: 4 weeks change from baseline
Experimental: as §1, §2
Lipoprotein A (Lp(a)) were measured on the Selectra autoanalyzer (Sopachem BV, 44-RI Straat 33, 4051 AP Ochten, The Netherlands). All assays were commercially available from DiaSys Diagnostic Systems GmbH, Alte Strasse 9, 65558 Holzheim, Germany.

SMILES: O=C(Nc1nc2cccc(-c3ccc(CN4CCS(=O)(=O)CC4)cc3)n2n1)C1CC1 [Compound 1, cyclopropanecarboxylic acid {5-[4-(1,1-dioxo-thiomorpholin-4-ylmethyl)-phenyl]-[1,2,4]triazolo[1,5-a]pyridin-2yl}-amide]
- DAS28(CRP) mean CFB (LOCF) - 24 weeks results (RA patients [1]; 50 mg q.d., Week 24): −1.98
- DAS28(CRP) mean CFB (LOCF) - 12 weeks results (RA patients [1]; 50 mg q.d., week 1): −0.65
- DAS28(CRP) mean CFB (LOCF) - 24 weeks results (RA patients [1]; 50 mg q.d., week 1): −0.65
- DAS28(CRP) mean CFB (LOCF) - 12 weeks results (RA patients [1]; 50 mg q.d., week 2): −0.94
- DAS28(CRP) mean CFB (LOCF) - 24 weeks results (RA patients [1]; 50 mg q.d., week 2): −0.94
- DAS28(CRP) mean CFB (LOCF) - 24 weeks results (RA patients [1]; 50 mg q.d., week 4): −1.28
- DAS28(CRP) mean CFB (LOCF) - 12 weeks results (RA patients [1]; 50 mg q.d., week 12): −1.75
- DAS28(CRP) mean CFB (LOCF) - 24 weeks results (RA patients [1]; 50 mg q.d., week 12): −1.75
- DAS28(CRP) mean CFB (LOCF) - 24 weeks results (RA patients [1]; 100 mg q.d., week 1): −1.00
- DAS28(CRP) mean CFB (LOCF) - 12 weeks results (RA patients [1]; 100 mg q.d., week 2): −1.50
- DAS28(CRP) mean CFB (LOCF) - 24 weeks results (RA patients [1]; 100 mg q.d., week 16): −2.51
- DAS28(CRP) mean CFB (LOCF) - 24 weeks results (RA patients [1]; 100 mg q.d., week 24): −2.70
- % patients reaching low disease activity and/or remission at week 24 (LOCF) (RA patients [1]; 200 mg q.d.): 52%
- DAS28(CRP) mean CFB (LOCF) - 24 weeks results (RA patients [1]; 200 mg q.d., week 1): −1.17
- DAS28(CRP) mean CFB (LOCF) - 24 weeks results (RA patients [1]; 200 mg q.d., week 2): −1.52
- DAS28(CRP) mean CFB (LOCF) - 12 weeks results (RA patients [1]; 200 mg q.d., week 8): −2.30
- DAS28(CRP) mean CFB (LOCF) - 24 weeks results (RA patients [1]; 200 mg q.d., week 16): −2.70
- DAS28(CRP) mean CFB (LOCF) - 24 weeks results (RA patients [1]; 200 mg q.d., week 24): −2.80
- % patients reaching low disease activity and/or remission at week 24 (LOCF) (RA patients [1]; 2 × 25 mg b.i.d.): 49%
- DAS28(CRP) mean CFB (LOCF) - 12 weeks results (RA patients [1]; 2 × 25 mg b.i.d., Week 1): −0.68
- DAS28(CRP) mean CFB (LOCF) - 24 weeks results (RA patients [1]; 2 × 25 mg b.i.d., Week 1): −0.68
- DAS28(CRP) mean CFB (LOCF) - 12 weeks results (RA patients [1]; 2 × 25 mg b.i.d., Week 4): −1.45
- DAS28(CRP) mean CFB (LOCF) - 24 weeks results (RA patients [1]; 2 × 25 mg b.i.d., Week 4): −1.45
- DAS28(CRP) mean CFB (LOCF) - 12 weeks results (RA patients [1]; 2 × 25 mg b.i.d., Week 8): −1.82
- DAS28(CRP) mean CFB (LOCF) - 24 weeks results (RA patients [1]; 2 × 25 mg b.i.d., Week 8): −1.82
- DAS28(CRP) mean CFB (LOCF) - 12 weeks results (RA patients [1]; 2 × 50 mg b.i.d., Week 1): −0.84
- DAS28(CRP) mean CFB (LOCF) - 24 weeks results (RA patients [1]; 2 × 50 mg b.i.d., Week 1): −0.84
- DAS28(CRP) mean CFB (LOCF) - 12 weeks results (RA patients [1]; 2 × 50 mg b.i.d., Week 12): −2.10
- DAS28(CRP) mean CFB (LOCF) - 24 weeks results (RA patients [1]; 2 × 50 mg b.i.d., Week 12): −2.10
- DAS28(CRP) mean CFB (LOCF) - 24 weeks results (RA patients [1]; 2 × 50 mg b.i.d., Week 20): −2.40
- DAS28(CRP) mean CFB (LOCF) - 24 weeks results (RA patients [1]; 2 × 50 mg b.i.d., Week 24): −2.40
- DAS28(CRP) mean CFB (LOCF) - 12 weeks results (RA patients [1]; 2 × 100 mg b.i.d., Week 8): −2.72
- DAS28(CRP) mean CFB (LOCF) - 24 weeks results (RA patients [1]; 2 × 100 mg b.i.d., Week 8): −2.72
- ApoC-III level, 4 weeks CFB (RA patients [2]; 30 mg q.d.): 4.6%
- ApoC-III level, week 4 (RA patients [2]; 30 mg q.d.): 78.6 ng/mL
- ApoC-III level, 4 weeks CFB (RA patients [2]; 75 mg q.d.): 17.6%
- ApoC-III level, week 4 (RA patients [2]; 75 mg q.d.): 79.6 ng/mL
- ApoC-III level, 4 weeks CFB (RA patients [2]; 150 mg q.d.): 9.6%
- ApoC-III level, week 4 (RA patients [2]; 150 mg q.d.): 82.7 ng/mL
- ApoC-III level, 4 weeks CFB (RA patients [2]; 300 mg q.d.): 27.9%
- ApoC-III level, week 4 (RA patients [2]; 300 mg q.d.): 88.2 ng/mL
- LpA level, 4 weeks CFB (RA patients [3]; 30 mg q.d.): 3.9%
- LpA level, Baseline (RA patients [3]; 30 mg q.d.): 22.5 mg/dL
- LpA level, week 4 (RA patients [3]; 30 mg q.d.): 25.9 mg/dL
- LpA level, 4 weeks CFB (RA patients [3]; 75 mg q.d.): −3.7%
- LpA level, Baseline (RA patients [3]; 75 mg q.d.): 28.5 mg/dL
- LpA level, week 4 (RA patients [3]; 75 mg q.d.): 23.6 mg/dL
- LpA level, 4 weeks CFB (RA patients [3]; 150 mg q.d.): 7.0%
- LpA level, Baseline (RA patients [3]; 150 mg q.d.): 29.5 mg/dL
- LpA level, week 4 (RA patients [3]; 150 mg q.d.): 35 mg/dL
- LpA level, 4 weeks CFB (RA patients [3]; 300 mg q.d.): 4.4%
- LpA level, Baseline (RA patients [3]; 300 mg q.d.): 13.4 mg/dL
- LpA level, week 4 (RA patients [3]; 300 mg q.d.): 10.1 mg/dL
